In patent US8741917B2, “Benzo [C] phenanthridines as antimicrobial agents” (Rutgers, The State University of New Jersey, priority 2009, dated 2014):
Like-named read-outs stand apart in the source and are kept apart here.

Columns and labels:
MRSA = experiment: Planktonic antibacterial broth microdilution assay; settings: Staphylococcus aureus
[1] = test system: Mycobacterium tuberculosis; experiment: Planktonic antibacterial broth microdilution assay; type: cell-based; settings: 24 hours continuous drug exposure
Bacillus subtilis = experiment: Planktonic antibacterial broth microdilution assay; type: cell-based; settings: 24 hours continuous drug exposure
Staphylococcus aureus = experiment: Planktonic antibacterial broth microdilution assay; type: cell-based; settings: 24 hours continuous drug exposure
Enterococcus faecalis = experiment: Planktonic antibacterial broth microdilution assay; type: cell-based; settings: 24 hours continuous drug exposure
Bacillus subtilis FtsZ [2] = target: T1, Bacillus subtilis FtsZ (Bacillus subtilis, UniProt P17865); experiment: 90°-angle light scattering assay of FtsZ polymerization; type: biochemical; settings: compound 40 μM; for Maximal Light Scattering: readout of extent of polymerization, no compound: 3.40; for Time to Reach Half-Maximal Light Scattering: readout of rate of polymerization, no compound: 91.6
T1 sequence (P17865 whole entry): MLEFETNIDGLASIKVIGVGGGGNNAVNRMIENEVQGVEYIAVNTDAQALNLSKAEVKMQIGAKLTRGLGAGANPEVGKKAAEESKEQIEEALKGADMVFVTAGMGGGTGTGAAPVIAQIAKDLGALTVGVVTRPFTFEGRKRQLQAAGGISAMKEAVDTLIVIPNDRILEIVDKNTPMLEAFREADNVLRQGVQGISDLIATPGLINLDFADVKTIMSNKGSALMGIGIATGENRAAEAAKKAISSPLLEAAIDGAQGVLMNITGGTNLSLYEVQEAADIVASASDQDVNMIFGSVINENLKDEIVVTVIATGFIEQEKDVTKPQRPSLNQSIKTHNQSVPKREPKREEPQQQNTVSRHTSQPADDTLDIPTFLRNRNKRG
Description: B[c]P inhibition of FtsZ polymerization can be tested using a 90°-angle light scattering assay for monitoring drug impact on FtsZ polymerization. This assay is premised on the increased light scattering properties of polymeric FtsZ relative to the monomeric form of the protein. To this end, the light scattering at 600 nm of 5 μM FtsZ is continuously monitored under polymerization conditions in the absence or presence of a B[c]P compound at concentrations ranging from 40 to 80 μM.
Polymerization is initiated by addition of 0.5 mM GTP. The rate and extent of FtsZ polymerization can be quantified by analyzing the light scattering profiles to derive maximal light scattering values (which provide a readout of the extent of polymerization) as well as the times required to reach half-maximal light scattering values (which provide a readout of the rate of polymerization).

Bacillus subtilis FtsZ [3] = target: T1, Bacillus subtilis FtsZ; experiment: Fluorescence-based competition binding assay (displacement of BODIPY-GTPγS from FtsZ); settings: FIG. 8; reduction reflects binding to FtsZ and release of BODIPY-GTPγS
Text: B[c]P binding to FtsZ can be tested using a fluorescence-based competition binding assay using purified FtsZ and a commercially available GTPγS analog where the nucleotide is covalently conjugated via its sulfur atom to the fluorescent dye BODIPY (DIPYrromethene BOron difluoride). Upon binding to FtsZ, BODIPY-GTPγS undergoes a dramatic increase in fluorescence emission intensity (I) at 510 nm. This binding-induced change in BODIPY-GTPγS fluorescence provides the dissociation constant (Kd-GTP) of the nucleotide for the protein through analysis of fluorescence titration profiles with the following formalism, which is predicated on a one-to-one binding stoichiometry:
[formula] I0 and I are the fluorescence emission intensities of BODIPY-GTPγS in the absence and presence of a given FtsZ concentration, respectively, I∞ is the fluorescence emission intensity of BODIPY-GTPγS in the presence of an infinite FtsZ concentration, and [GTP]tot and [FtsZ]tot are the total concentrations of BODIPY-GTPγS and FtsZ, respectively. […]
I0 and I are the fluorescence emission intensities of the FtsZ-BODIPY-GTPγS complex in the absence and presence of a given compound concentration, respectively, I∞ is the fluorescence emission intensity of the FtsZ-BODIPY-GTPγS complex in the presence of infinite compound concentration, [Compd]tot is the total compound concentration, and p is the Hill slope. […]

Structure (SMILES)	MIC (MRSA; read-out: MIC vs. MRSA) [µg/mL]	also measured
COc1ccc2c(c[n+](C)c3c4cc5c(cc4ccc23)OCO5)c1OC [Chelerythrine]	–	MIC (MRSA; 24 h, read-out: MRSA MIC): 16 µg/mL; MIC [1]: 8 µg/mL; MIC (Bacillus subtilis): 4 µg/mL; MIC (Staphylococcus aureus): 8 µg/mL; MIC (Enterococcus faecalis): 32 µg/mL; Maximal Light Scattering (Bacillus subtilis FtsZ [2]): 2.83 a.u.; Time to Reach Half-Maximal Light Scattering (Bacillus subtilis FtsZ [2]): 205.3 s
COc1cc2ccc3c4ccc5c(c4c[n+](C)c3c2cc1OC)OCO5 [Comparative Example 1, reference compound]	32	–
COc1cc2ccc3c4ccc(OC)c(OC)c4c[n+](C)c3c2cc1OC [Comparative Example 2, reference compound]	64	–
COc1cc2c(ccc3c4ccc5c(c4c[n+](C)c23)OCO5)c(-c2ccc(-c3ccccc3)cc2)c1OC [Example 3, 8-Biphenyl-4-yl-9,10-dimethoxy-12-methyl-1,3-dioxa-12-azoniacyclopenta[a]chrysene chloride]	< 16	MIC (MRSA; 24 h, read-out: MRSA MIC): 8 µg/mL; MIC [1]: 4 µg/mL; MIC (Bacillus subtilis): 2 µg/mL; MIC (Staphylococcus aureus): 2 µg/mL; MIC (Enterococcus faecalis): 16 µg/mL; Maximal Light Scattering (Bacillus subtilis FtsZ [2]): 1.76 a.u.; Time to Reach Half-Maximal Light Scattering (Bacillus subtilis FtsZ [2]): 600.5 s; fluorescence of FtsZ-bound BODIPY-GTPγS upon addition of compound (Bacillus subtilis FtsZ [3]): decreases
COc1cc2c(ccc3c4ccc5c(c4c[n+](C)c23)OCO5)c(-c2ccccc2)c1OC [Example 4]	< 16	–
COc1cc2c(ccc3c4ccc5c(c4c[n+](C)c23)OCO5)c(Cc2ccccc2)c1OC [Example 5]	< 16	–
COc1ccc(-c2c(OC)c(OC)cc3c2ccc2c4ccc5c(c4c[n+](C)c32)OCO5)cc1 [Example 6]	< 16	–
COc1cc2c(ccc3c4ccc(OC)c(OC)c4c[n+](C)c23)c(-c2ccc(-c3ccccc3)cc2)c1OC [Example 7]	< 16	–
COc1cc2c(ccc3c4ccc(OC)c(OC(C)C)c4c[n+](C)c23)c(-c2ccccc2)c1OC [Example 8]	< 16	–
COc1cc2c(ccc3c4ccc(OC)c(OC)c4c[n+](C)c23)c(C2=CCCCC2)c1OC [Example 9]	< 16	–
COc1cc2c(ccc3c4ccc(OC)c(OC)c4c[n+](C)c23)c(C2CCCCC2)c1OC [Example 10]	< 16	–
COc1cc2c(ccc3c4ccc(OC)c(OC)c4c[n+](C)c23)c(C2CC2)c1OC [Example 11]	< 16	–
COc1cc2c(ccc3c4ccc(OC)c(OC)c4c[n+](C)c23)c(-c2ccccc2)c1OC [Example 12]	< 16	–
COc1cc2c(-c3ccc(-c4ccccc4)cc3)cc3c4ccc5c(c4c[n+](C)c3c2cc1OC)OCO5 [Example 13]	< 16	–
COc1cc2c(-c3ccccc3)cc3c4ccc(OC)c(OC)c4c[n+](C)c3c2cc1OC [Example 14]	< 16	–
COc1cc(-c2c(OC)c(OC)cc3c2ccc2c4ccc(OC)c(OC)c4c[n+](C)c32)cc(OC)c1OC [Example 15]	< 16	–
COc1cc2c(ccc3c4ccc(OC)c(OC)c4c[n+](C)c23)c(-c2ccc(N(C)C)cc2)c1OC [Example 16]	< 16	–
COc1cc2c(ccc3c4ccc(OC)c(OC)c4c[n+](C)c23)c(-c2ccoc2)c1OC [Example 17]	< 16	–
COc1cc2c(ccc3c4ccc(OC)c(OC)c4c[n+](C)c23)c(-c2ccc(S(=O)(=O)N(C)C)cc2)c1OC [Example 18]	< 16	–
COc1cc2c(ccc3c4ccc(OC)c(OC)c4c[n+](C)c23)c(-c2ccc(CCN3CCOCC3)cc2)c1OC [Example 19]	< 16	–
COc1ccc2c(c1OC)CN(C)c1c-2ccc2c(-c3ccc(-c4ccccc4)cc3)c(OC)c(OC)cc12 [Example 20]	< 16	–
COc1ccc2c(c1OC)CN(C)c1c-2ccc2c(C3CC3)c(OC)c(OC)cc12 [Example 21]	< 16	–
COc1cc2c(ccc3c4ccc(OC)c(OC)c4c[n+](C)c23)c(-c2cccnc2)c1OC [Example 22]	< 16	–
COc1cc2c(-c3ccc(-c4ccccc4)cc3)cc3c4ccc(OC)c(OC)c4c[n+](C)c3c2cc1OC [Example 23]	< 16	–
COc1ccc2c(c1OC)C(N)N(C)c1c-2ccc2c(-c3ccc(-c4ccccc4)cc3)c(OC)c(OC)cc12 (stereo not drawn) [Example 24]	< 16	–
COc1ccc2c(c1OC)C(OC)N(C)c1c-2ccc2c(-c3ccc(-c4ccccc4)cc3)c(OC)c(OC)cc12 (stereo not drawn) [Example 25]	< 16	–
C[n+]1cc2c3c(ccc2c2ccc4cc5c(cc4c21)OCO5)OCO3 [Sanguinarine]	–	MIC (MRSA; 24 h, read-out: MRSA MIC): 16 µg/mL; MIC [1]: 8 µg/mL; MIC (Bacillus subtilis): 4 µg/mL; MIC (Staphylococcus aureus): 8 µg/mL; MIC (Enterococcus faecalis): 32 µg/mL
